# Source: PubChem BioAssay (NCI)
#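 Method: 48-hour compound exposure of cells in 96-well plates, five concentrations, linear interpolation of endpoints. GI50 = concentration required for 50% inhibition of growth. TGI: total growth inhibition.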
# How the values were obtained:
# Assay in all cases: NCI tumour cell line growth inhibition, 48 h
# [1] = system: 786-0 renal
# [2] = system: A549 NSCLC
# [3] = system: ACHN renal
# [4] = system: CAKI-1 renal
# [5] = system: CCRF-CEM leukemia
# [6] = system: COLO 205 colon
# [7] = system: DLD-1 colon
# [8] = system: DMS 114 small cell lung
# [9] = system: EKVX NSCLC
# [10] = system: HCC-2998 colon
# [11] = system: HCT-116 colon
# [12] = system: HCT-15 colon
# [13] = system: HL-60(TB) leukemia
# [14] = system: HOP-18 NSCLC
# [15] = system: HOP-62 NSCLC
# [16] = system: HOP-92 NSCLC
# [17] = system: HT29 colon
# [18] = system: IGROV1 ovarian
# [19] = system: K-562 leukemia
# [20] = system: KM12 colon
# [21] = system: KM20L2 colon
# [22] = system: LOX IMVI melanoma
# [23] = system: LXFL 529 NSCLC
# [24] = system: M14 melanoma
# [25] = system: M19-MEL melanoma
# [26] = system: MALME-3M melanoma
# [27] = system: MOLT-4 leukemia
# [28] = system: NCI-H226 lung
# [29] = system: NCI-H23 lung
# [30] = system: NCI-H460 lung
# [31] = system: OVCAR-3 ovarian
# [32] = system: OVCAR-4 ovarian
# [33] = system: OVCAR-5 ovarian
# [34] = system: OVCAR-8 ovarian
# [35] = system: RPMI-8226 leukemia
# [36] = system: RXF 393 renal
# [37] = system: SF-268 CNS
# [38] = system: SF-295 CNS
# [39] = system: SF-539 CNS
# [40] = system: SK-MEL-2 melanoma
# [41] = system: SK-MEL-28 melanoma
# [42] = system: SK-MEL-5 melanoma
# [43] = system: SK-OV-3 ovarian
# [44] = system: SN12C renal
# [45] = system: SNB-19 CNS
# [46] = system: SNB-75 CNS
# [47] = system: SNB-78 CNS
# [48] = system: SR leukemia
# [49] = system: TK-10 renal
# [50] = system: U251 CNS
# [51] = system: UACC-257 melanoma
# [52] = system: UACC-62 melanoma
# [53] = system: UO-31 renal
# [54] = system: NCI-H522 lung
# [55] = system: SW-620 colon
# [56] = system: DMS 273 small cell lung
structure (smiles),measurement,setting,value
C[N-]c1nnnn1C.[Au+].c1ccc([PH+](c2ccccc2)c2ccccc2)cc1,GI50,[1],1.74 µM
same,TGI,[1],3.12 µM
same,GI50,[2],14.7 µM
same,TGI,[2],68.7 µM
same,GI50,[3],4.26 µM
same,TGI,[3],8.38 µM
same,GI50,[4],2.39 µM
same,TGI,[4],5 µM
same,GI50,[5],0.556 µM
same,TGI,[5],3.44 µM
same,GI50,[6],3.33 µM
same,TGI,[6],8.81 µM
same,GI50,[7],2.05 µM
same,TGI,[7],5.02 µM
same,GI50,[8],2.57 µM
same,TGI,[8],> 100 µM
same,GI50,[9],4.32 µM
same,TGI,[9],8.99 µM
same,GI50,[10],4.06 µM
same,TGI,[10],9.23 µM
same,GI50,[11],11.7 µM
same,TGI,[11],23.9 µM
same,GI50,[12],2.17 µM
same,TGI,[12],5.72 µM
same,GI50,[13],0.189 µM
same,TGI,[13],0.567 µM
same,GI50,[14],2.35 µM
same,TGI,[14],5.96 µM
same,GI50,[15],7.89 µM
same,TGI,[15],16.8 µM
same,GI50,[16],2.67 µM
same,TGI,[16],5.42 µM
same,GI50,[17],2 µM
same,TGI,[17],4.53 µM
same,GI50,[18],2.76 µM
same,TGI,[18],9.99 µM
same,GI50,[19],0.518 µM
same,TGI,[19],2.88 µM
same,GI50,[20],7.09 µM
same,TGI,[20],28.6 µM
same,GI50,[21],4.05 µM
same,TGI,[21],10.3 µM
same,GI50,[22],2.12 µM
same,TGI,[22],5.77 µM
same,GI50,[23],1.37 µM
same,TGI,[23],2.83 µM
same,GI50,[24],2.34 µM
same,TGI,[24],5.51 µM
same,GI50,[25],2.9 µM
same,TGI,[25],14.9 µM
same,GI50,[26],1.42 µM
same,TGI,[26],2.91 µM
same,GI50,[27],1.62 µM
same,TGI,[27],4.22 µM
same,GI50,[28],4.98 µM
same,TGI,[28],14 µM
same,GI50,[29],1.97 µM
same,TGI,[29],4.48 µM
same,GI50,[30],8.54 µM
same,TGI,[30],52.7 µM
same,GI50,[31],2.58 µM
same,TGI,[31],6.53 µM
same,GI50,[32],3.19 µM
same,TGI,[32],12.9 µM
same,GI50,[33],19.1 µM
same,TGI,[33],34 µM
same,GI50,[34],3.18 µM
same,TGI,[34],14.2 µM
same,GI50,[35],1.29 µM
same,TGI,[35],4.54 µM
same,GI50,[36],0.347 µM
same,TGI,[36],1.26 µM
same,GI50,[37],3.5 µM
same,TGI,[37],15.4 µM
same,GI50,[38],3.47 µM
same,TGI,[38],12.2 µM
same,GI50,[39],2.38 µM
same,TGI,[39],7.39 µM
same,GI50,[40],1.66 µM
same,TGI,[40],3.78 µM
same,GI50,[41],1.39 µM
same,TGI,[41],3.13 µM
same,GI50,[42],1.59 µM
same,TGI,[42],3.65 µM
same,GI50,[43],13 µM
same,TGI,[43],26.6 µM
same,GI50,[44],3.46 µM
same,TGI,[44],7.92 µM
same,GI50,[45],2.25 µM
same,TGI,[45],6.18 µM
same,GI50,[46],4.75 µM
same,TGI,[46],11 µM
same,GI50,[47],5.28 µM
same,TGI,[47],> 69.1 µM
same,GI50,[48],1.11 µM
same,TGI,[48],4.12 µM
same,GI50,[49],2.19 µM
same,TGI,[49],4.42 µM
same,GI50,[50],2.28 µM
same,TGI,[50],5.56 µM
same,GI50,[51],2.03 µM
same,TGI,[51],6.51 µM
same,GI50,[52],2.06 µM
same,TGI,[52],6.87 µM
same,GI50,[53],12.7 µM
same,TGI,[53],25.3 µM
COc1ccc(/C=N/n2cnc3c(sc(=S)n3-c3ccccc3)c2=O)cc1,TGI,[2],> 100 µM
same,TGI,[3],> 100 µM
same,TGI,[5],57.8 µM
same,TGI,[6],> 100 µM
same,TGI,[7],> 100 µM
same,TGI,[10],> 100 µM
same,TGI,[11],> 100 µM
same,TGI,[13],37.9 µM
same,TGI,[15],37.3 µM
same,TGI,[16],29.6 µM
same,TGI,[17],> 100 µM
same,TGI,[18],> 100 µM
same,TGI,[19],48.8 µM
same,TGI,[20],> 100 µM
same,TGI,[23],48.8 µM
same,TGI,[25],> 100 µM
same,TGI,[27],90.9 µM
same,TGI,[28],54.4 µM
same,TGI,[29],87.3 µM
same,TGI,[30],> 100 µM
same,TGI,[54],30.1 µM
same,TGI,[31],38.1 µM
same,TGI,[33],> 100 µM
same,TGI,[34],> 100 µM
same,TGI,[35],58.8 µM
same,TGI,[37],38.8 µM
same,TGI,[38],31.5 µM
same,TGI,[39],28.5 µM
same,TGI,[41],38.6 µM
same,TGI,[42],> 100 µM
same,TGI,[43],58.6 µM
same,TGI,[45],77.5 µM
same,TGI,[46],7.87 µM
same,TGI,[48],> 100 µM
same,TGI,[55],> 100 µM
same,TGI,[49],65.4 µM
same,TGI,[50],> 100 µM
same,TGI,[51],> 100 µM
same,TGI,[52],49.8 µM
same,TGI,[53],> 100 µM
COC(=O)N(C(=O)OC)C(C(=O)O)C(C)C (centres undefined),TGI,[1],> 100 µM
same,TGI,[2],> 100 µM
same,TGI,[3],> 100 µM
same,TGI,[4],> 100 µM
same,TGI,[6],> 100 µM
same,TGI,[7],> 100 µM
same,TGI,[8],> 100 µM
same,TGI,[56],> 100 µM
same,TGI,[9],> 100 µM
same,TGI,[10],> 100 µM
same,TGI,[13],> 100 µM
same,TGI,[14],> 100 µM
same,TGI,[15],> 100 µM
same,TGI,[16],> 100 µM
same,TGI,[17],> 100 µM
same,TGI,[20],> 100 µM
same,TGI,[21],> 100 µM
same,TGI,[22],> 100 µM
same,TGI,[23],> 100 µM
same,TGI,[24],> 100 µM
same,TGI,[25],> 100 µM
same,TGI,[28],> 100 µM
same,TGI,[29],> 100 µM
same,TGI,[30],> 100 µM
same,TGI,[54],> 100 µM
same,TGI,[32],> 100 µM
same,TGI,[33],> 100 µM
same,TGI,[34],> 100 µM
same,TGI,[36],> 100 µM
same,TGI,[37],> 100 µM
same,TGI,[38],> 100 µM
same,TGI,[39],> 100 µM
same,TGI,[40],> 100 µM
same,TGI,[41],> 100 µM
same,TGI,[44],> 100 µM
same,TGI,[45],> 100 µM
same,TGI,[46],> 100 µM
same,TGI,[47],> 100 µM
same,TGI,[55],> 100 µM
same,TGI,[49],> 100 µM
same,TGI,[50],> 100 µM
same,TGI,[51],> 100 µM
same,TGI,[53],> 100 µM
